Drawing on ChEMBL document CHEMBL1125945, “Tripyl-convergent total synthesis of a homochiral benzoindane-fused prostacyclin analog” (Bioorg Med Chem Lett, 1991), this text covers IC50 for one compound.

The species named for the experiment is Homo sapiens. Briefly: Compound was tested for inhibitory activity against collagen induced platelet aggregation. It is filed as functional.

pIC50: −log10 of the molar value.

In turn, `O=C(O)COc1cccc2c1[C@H]1C[C@@H](O)[C@H](C#C[C@@H](O)C3CCCCC3)[C@H]1C2` had a negative logarithm of the IC50 (pIC50) of 5.60.
